Test results as given in PMC10486604 (Cancers, 2023).
pIC50: −log10 of the molar value. Like-named read-outs stand apart in the source and are kept apart here.

Assays:
[1] = In vivo pharmacokinetics in 786-O tumor-bearing mice; settings: female, NMRI nu/nu, mouse, iv, 4 mg/kg
Protocol: Plasma and tumor samples were collected and frozen at <−15 °C until sample analysis. Samples were analyzed for concentrations of respective SMDCs and the released payload 1 by LC/MS/MS. […] All pharmacokinetic parameters were calculated by non-compartmental methods.

MA4296 = assay: Orthotopic TNBC PDX model MA4296; format: in vivo, mouse; settings: orthotopic TNBC PDX models, both schedules
Protocol: Two orthotopic TNBC PDX mouse models were performed. Tumor cells were inoculated into the mammary fat pad of mice. Therefore, the mice were anesthetized shortly before surgery. After disinfection of the skin, mice received a small incision in the skin between the 4th and 5th dug. Each mouse was implanted with 2.5 × 10^6 (MA4296) or 5 × 10^6 (MA15191) cells. Treatment started on day 20 after inoculation, when palpable tumor sizes reached 127 mm^3 (day 33 for MA15191). […] Tumors were measured twice weekly with calipers, and their volume was calculated with the following formula: (length × width^2)/2. The body weight was also determined two times weekly. Reasons for termination were tumor size > 1.5 cm^3 or poor general condition. At the end of the study, tissue sampling for IHC and PCR analyses was performed. The statistical analysis was performed using mixed-effect analysis with Tukey’s multiple comparisons test (GraphPad Prism 8.4.2) to calculate significance in tumor growth inhibition between vehicle and treatment groups over time. The Kruskal–Wallis test was used to determine significance at study days 43 and 47. Additionally, the unpaired t-test was performed.

LXFL529 = assay: PDX model LXFL529 (NSCLC), subcutaneous; format: in vivo, mouse; settings: across PDX models
Protocol: Studies were conducted according to all applicable international, national, and local laws and followed the national guidelines for the Care and Use of Laboratory Animals of the Society of Laboratory Animal Science (GV-SOLAS). All animal experiment protocols were approved by the Regional Council Committee on the Ethics of Animal Experiments. Non-small-cell lung (LXFL529) and renal (RXF2667) PDX mouse models comprised six groups each with 10 animals. Tumor fragments (3–4 mm edge length) were transplanted, and tumor growth was monitored until a median size of about 120–150 mm^3 was achieved. […] Both experiments were terminated after a three-week recovery phase on day 63. Animals were monitored at least twice daily on working days and at least once daily on weekends (tumor size and body weight measurement). Colon (CXF2068) and triple-negative breast cancer (TNBC) (MAXF BR120) PDX mouse models were performed as described above with changes in schedule. […] The statistical significance of antitumor efficacy was analyzed by the non-parametric Kruskal–Wallis test, followed by Dunn’s method for multiple comparisons using GraphPad Prism bioanalytic software (version 9.10), with p < 0.05 as significant. Additionally, a nonpaired t-test was performed using GraphPad Prism (version 9.10).

human NE = target: T1, human NE (Homo sapiens, UniProt P08246); assay: Human NE biochemical cleavage assay; settings: read-out: Km (cleavage to payload 1)
T1 sequence (P08246 30-267): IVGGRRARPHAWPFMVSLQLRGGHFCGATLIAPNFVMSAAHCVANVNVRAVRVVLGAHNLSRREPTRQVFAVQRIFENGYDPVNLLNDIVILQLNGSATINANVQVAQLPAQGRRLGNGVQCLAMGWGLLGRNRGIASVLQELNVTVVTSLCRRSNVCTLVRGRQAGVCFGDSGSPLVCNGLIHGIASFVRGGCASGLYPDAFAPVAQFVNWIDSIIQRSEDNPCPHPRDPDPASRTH
Protocol: Then, 125 μL of pre-heated buffer (100 mM Tris pH 7.5, 150 mM NaCl, 10 mM CaCl2, and 0.05% BSA) was added to each incubation. The reaction was started by adding 0.5 or 1 nM activated mouse elastase (according to manufacturer’s protocol) or human NE to the reaction vials. A negative control without elastase was run under the same conditions. The reaction was stopped at 0, 4.5, 8, and 12 min by the addition of acidified acetonitrile/0.2% formic acid. Camptothecin was used as internal standard for the LC/MS/MS analysis.

LoVo = assay: In vitro proliferation (MTT) assay in presence and absence of NE, LoVo; format: cell-based; settings: Homo sapiens, 72 h
Protocol: (§1) The in vitro cytotoxicity was evaluated in cancer cell lines NCI-H292 and LoVo after a 72-h continuous exposure to the presence or absence of 20 nM NE using MTT assays (ATCC, Manassas, VA, USA). IC50 values were determined as the concentration of compound required for 50% inhibition of cell viability.

NCI-H292 = assay: In vitro proliferation (MTT) assay in presence and absence of NE, NCI-H292; format: cell-based; settings: Homo sapiens, 72 h
Protocol: as §1

[2] = payload 1 dosed directly 1 mg/kg IV, 786-O tumor-bearing mice, cited from earlier work

Compound | half-life [1] [h] | Tolerability (MA4296) | Tolerability (weight loss) (LXFL529) | Km (human NE; enzyme concentration 0.5 nmol) [µM] | Km (human NE; enzyme concentration 1.0 nmol) [µM] | pIC50 (LoVo; absence of hNE, read-out: LoVo IC50) | pIC50 (LoVo; presence of 20 nM hNE, read-out: LoVo + hNE IC50) | pIC50 (NCI-H292; absence of hNE, read-out: NCI H292 IC50) | pIC50 (NCI-H292; presence of 20 nM hNE, read-out: NCI H292 + hNE IC50) | AUCplasma of payload 1 (VIP126) [2] [ng·h/mL] | AUCtumor of payload 1 (VIP126) [2] [ng·h/mL] | AUCtumor/AUCplasma of payload 1 (VIP126) [2] | AUCtumor/AUCplasma of payload 1 (VIP126) ([2]; listed as Payload 1 (VIP126))
CCCNC(=O)Nc1cccc(S(=O)(=O)Nc2cccc([C@H](CC(=O)O)NC(=O)Nc3ccc(NC(=O)NCCOCCOCCOCCC(=O)N[C@@H](CC(=O)O)C(=O)N4CCC[C@H]4C(=O)N[C@H](C(=O)O[C@]4(CC)C(=O)OCc5c4cc4n(c5=O)Cc5c-4nc4ccccc4c5CC)C(C)C)cc3)c2)c1 [8e2] | 1.3 |  |  |  |  |  |  |  |  |  |  |  | 
CCCNC(=O)Nc1cccc(S(=O)(=O)Nc2cccc([C@@H](CC(=O)O)NC(=O)Nc3ccc(NC(=O)NCCOCCOCCOCCC(=O)N[C@@H](CC(=O)O)C(=O)N4CCC[C@H]4C(=O)N[C@H](C(=O)O[C@]4(CC)C(=O)OCc5c4cc4n(c5=O)Cc5c-4nc4ccccc4c5CC)C(C)C)cc3)c2)c1 [VIP236] | 0.807 | well tolerated | well tolerated | 9.4 | 9.6 |  |  |  |  |  |  |  | 
CCc1c2c(nc3ccccc13)-c1cc3c(c(=O)n1C2)COC(=O)[C@]3(O)CC [compound 1, 7-ethyl camptothecin] |  |  |  |  |  | 8.72 | 8.73 | 8.81 | 8.87 | 301 | 185 | 0.61 | 0.616
